One molecule from patent US9662329B2, “Use of survivin antagonists in polyomavirus-related disease” (University of Pittsburgh—Of the Commonwealth System of …, priority 2012, dated 2017) can be followed below.

In data set [1] the test system is MCV-negative MCC cell line. The data set is described as follows: Cell-Titer Glo growth inhibition by YM155. Format: cell-based, human. The settings on record: MCV-negative vs MCV-positive MCC cells. How it is done:
Serial drug dilutions from 10^−4 M to 10^−9 M were used on MCC and non-MCC cell lines. Cells were seeded into 384-well plates at 6000 cells in 50 μl of medium per well. After 24 hours, 25 μl of 3× drugs were added at increasing concentration to each well. Cell viability was then measured using Cell Titer Glo (Promega) kit following manufacturer's instructions as described previously. Each drug concentration was tested in triplicate for each cell line and experiments were repeated twice. EC50 doses for the drugs were calculated using a four parameter logistic equation (GraphPad Prism).

Another data set concerns BJ cells. Put plainly: Trypan blue dye exclusion assay. The settings on record: 48 h. Format: cell-based, human. How it is done: (§1) Cells were equally seeded and treated with YM155 for 48 hours. To count blue stained dead cells, cells were treated with Accutase (Millipore), collected, resuspended in PBS, mixed with equal volume of Trypan blue (Lonza, 0.4%) and counted using a hemocytometer under the microscope. The counts were done in triplicate and the experiment was repeated three times.

For the next data set, the system named is UISO cells. The data set is described as follows: Trypan blue dye exclusion assay. The format is cell-based, human. The settings on record: 48 h. On the procedure:
as §1

The test system of the next data set is MKL-1 cells. Put plainly: Immunoblotting for cPARP, cCaspase 3 and LC3. The format is cell-based, human. The note with it: 100 nM, 48 hours.
The subject of data set [2] is human MKL-1 MCC xenografts. On the procedure:
Compounds were dissolved in sterile 0.9% saline solution for administration to animals.
Six-week-old female triple immune-deficient NSG (Nod-SCID gamma) mice (Jackson Laboratory) were maintained in a specific pathogen-free environment.
MCC cells were checked for viability >90% by trypan blue staining, resuspended in PBS (2×10^7 cells in 100 μl) and inoculated subcutaneously into the right flank of mice.
All treatments were delivered for three consecutive weeks. […] YM-155 (2 mg/kg) was given intraperitoneally on five consecutive days, followed by a two-day treatment free interval.
Two-tailed paired Student's t test was used to analyze statistical differences in qRT-PCR results. Mouse survival curves were estimated using the Kaplan-Meier product-limit method and were compared using the log-rank test (GraphPad Software, La Jolla, Calif.). A piecewise linear hierarchical Bayesian model (Zhao et al., Bayesian hierarchical changepoint methods in modeling the tumor growth profiles in xenograft experiments. Clinical Cancer Res 17, 1057 (Mar. 1, 2011)) was used to characterize differences in tumor volumes and growth between treatments.
Cells of Merkel cell polyomavirus (+) carcinoma cell lines MKL-1, MS-1, WaGa, and MKL-2 were checked for viability >90% by trypan blue staining, resuspended in PBS (2×10^7 cells in 100 μl) and inoculated subcutaneously into the right flank of mice.
YM-155 was given intraperitoneally on five consecutive days, followed by a two-day treatment free interval. For YM155 this treatment continued for three weeks or until mice were euthanized. Mice were euthanized upon showing a tumor having a diameter of 20 mm, or upon a showing of significant distress (>20% weight loss or when they became moribund). Caliper measurements of the longest perpendicular tumor diameters were performed every other day and tumor volumes were calculated using the formula: (width)^2×(length/2). Survival was defined as time from the first day of treatment until death/sacrifice.

Another data set deals with MKL-2 xenografts. Put plainly: MKL-2 xenograft drug treatment. The format is in vivo, NSG mice. The settings on record: continuously at 4 mg/kg.
Where [3] appears, read: three weeks treatment, bortezomib 1 mg/kg twice weekly, YM155 2 mg/kg 5 times weekly.

As for `COCCn1c2c([n+](Cc3cnccn3)c1C)C(=O)c1ccccc1C2=O.[Br-]` [YM155, 1-(2-methoxyethyl)-2-methyl-4,9-dioxo-3-(pyrazin-2-ylmethyl)-4,9-dihydro-1H-naphtho[2,3-d]imidazol-3-ium bromide], the “concentrations inhibiting MCV-negative MCC cell line growth, higher than for MCV-positive MCC cells” value in data set [1] is 1-2 orders of magnitude. In addition, the “cell killing, trypan blue vital dye exclusion” value with BJ cells is listed as “resistant”. Besides, in the data set on UISO cells, the “cell killing, trypan blue vital dye exclusion” value is “relatively less sensitive”. In addition, in the data set with MKL-1 cells, the “LC3-II accumulation (marker for cell autophagy)” value is on record as “did not initiate LC3-II accumulation”; the “apoptosis measured by caspase 3 and PARP cleavage” value is given as “No evidence of apoptosis”. Moreover, the “survival after initiation of treatment” value in data set [2] (Example 2, 2 mg/kg for three weeks) is “almost two months”. Moreover, the “survival after treatment began” value in data set [2] (Example 2, continuously at 4 mg/kg) was “more than three months”. Further, the “tumor growth after treatment was stopped” value in data set [2] (after single 3-week course, 2 mg/kg) was “all tumors resumed growth once YM155 was stopped”. Further, the “tolerability / adverse effects in mice” value in data set [2] (bortezomib 1 mg/kg twice weekly, YM155 2 mg/kg 5 times weekly) was “well-tolerated and no adverse effects or acute toxicities were noted”. Moreover, in data set [2] (setting [3]), the “mice dying during treatment (up to day 19)” value is recorded as “none” and the “xenograft tumor growth / progression during treatment” value is recorded as “markedly delayed MKL-1 xenograft growth”. Further, the “animals surviving, of 10” value with MKL-2 xenografts is “three survived more than four months”.
